Measured values as given in US20020142995A1, “Ammonium salts of hemoglobin allosteric effectors, and uses thereof” (priority 2000, published 2002).
Several values for one entry are separate records, joined by “and”; a condition that tells them apart may be missing. Equal entries are not always repeated. Where two headings read alike, the source gives them in different places.

Assays:
[1] = biological target: stripped hemoglobin (Homo sapiens, UniProt P68871); details: cited from earlier work
[2] = biological target: T1, goldfish free hemoglobin (Carassius auratus, UniProt P02018+P02140); experiment: Oxygen dissociation curves of goldfish free hemoglobin with allosteric effectors; type: biochemical; set-up: unit not given beside the values
T1 construct: human and goldfish free hemoglobin controls; from tissue; host or cells: goldfish blood (erythrocyte hemoglobin freed from cells); inferred from 'free hemoglobin' beside 'whole blood'
T1 sequence (P02140 1-147): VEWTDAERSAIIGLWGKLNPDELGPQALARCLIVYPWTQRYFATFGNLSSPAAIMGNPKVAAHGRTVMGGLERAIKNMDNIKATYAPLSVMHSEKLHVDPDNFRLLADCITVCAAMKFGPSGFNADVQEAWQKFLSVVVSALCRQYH
T1 sequence (P02018 1-142): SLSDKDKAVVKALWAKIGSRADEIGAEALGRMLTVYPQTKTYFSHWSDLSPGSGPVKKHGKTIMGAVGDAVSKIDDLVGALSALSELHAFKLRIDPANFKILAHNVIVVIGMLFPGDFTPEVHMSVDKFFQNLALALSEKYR
Experimental: FIG. 3 tabulates the P50 values of human and goldfish whole blood controls, human and goldfish free hemoglobin controls, and goldfish free hemoglobin that has been pre-incubated with various allosteric effectors and an ammonium salt of one of them.
FIG. 5 depicts oxygen dissociation curves of human free hemoglobin (pH 7.1; […]), goldfish free hemoglobin (pH 7.1; P50=8.5), and goldfish free hemoglobin+0.25 μmol IHP (pH 7.1; P50=15.0).
FIG. 6 depicts oxygen dissociation curves of goldfish free hemoglobin+0.5 μmol PCHA-DPG (pH 7.1; P50=10.3), goldfish free hemoglobin+0.5 μmol ATP (pH 7.08; P50=21.0), and goldfish free hemoglobin+0.5 μmol GTP (pH 7.11; P50=23.0).

[3] = tested on: whole blood; experiment: Blood oxygen dissociation (Hemox Analyzer) of whole blood pre-incubated with effector; type: cell-based; set-up: Observed P50: unit not given here; details: for change of the P50 of treated Red Blood Cells vs. control: observation, whole blood incubated with effector; for P50 of treated-washed RBC pellet vs. control: after resuspended in HBS
Experimental: Whole blood was collected from one subject. The blood was stored in a Vacutainer with Solution A (ACD) and stored at 4-8° C.
Effector characteristics prior to incubation were:
(see Summary of Results below).
Washes: After incubation of whole blood with/without effector, blood cells were washed four times with Saline buffer or HBS (BSA) by centrifugal pelleting to remove exogenous effector and to evaluate hemolysis. […]
Blood Oxygen Dissociation Reading: Blood Oxygen Dissociation of samples were determined using a Hemox Analizer Model B (TCS Medical Products Company, New Hope, Pa.) The sample chamber contained:
10-20 μL Pelleted Blood Cells incubated with Effector.
All readings were made at 36.7-37.2° C. and at pH 7.28-7.32. The P50S were calculated from the Dissociation Curves (see FIGS. 16-23) compared to same day control P50.

[4] = Visual appearance of effector solution; type: physicochemical
Experimental: Preparation of Effector Stock: Effector stock was prepared at 100-120 mM (Molal solution) using water or Bis-Tris Buffer.

[5] = tested on: Red Blood Cells; experiment: Aggregation of red blood cells after incubation with effector; type: cell-based; details: whole blood incubated with effector
Experimental: Incubation: Whole blood (75-300 μL) was incubated with 200 μL of effector at 37° C. for 5-10 min. (see Summary of Results below).
Washes: After incubation of whole blood with/without effector, blood cells were washed four times with Saline buffer or HBS (BSA) by centrifugal pelleting to remove exogenous effector and to evaluate hemolysis. After final centrifugation, pellet was not resuspended.

[6] = tested on: human RBCs; details: IHP encapsulated in human RBCs by electroporation; cited from earlier work
[7] = biological target: allosteric site on hemoglobin (Homo sapiens, UniProt P68871); details: displaces hemoglobin-bound 2,3-DPG; cited from earlier work
[8] = goldfish free hemoglobin + 0.5 μmol effector, pH 7.08-7.11
[9] = 75 μL whole blood incubated (2-5 min) with 200 μL 30 mM effector, washed 4×, 15 μL RBC measured at 37° C.

Sequence of stripped hemoglobin (P69905 2-142 partner limits assumed): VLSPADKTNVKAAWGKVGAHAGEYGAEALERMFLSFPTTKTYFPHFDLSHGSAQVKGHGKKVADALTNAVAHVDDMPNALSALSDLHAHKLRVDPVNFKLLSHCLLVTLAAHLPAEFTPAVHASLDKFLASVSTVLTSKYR
Sequence of stripped hemoglobin (P68871 2-147 limits assumed): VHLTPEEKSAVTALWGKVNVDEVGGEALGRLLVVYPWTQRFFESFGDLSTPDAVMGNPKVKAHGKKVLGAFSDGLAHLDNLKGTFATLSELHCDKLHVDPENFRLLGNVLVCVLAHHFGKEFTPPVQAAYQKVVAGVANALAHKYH
Sequence of allosteric site on hemoglobin (P69905 2-142 partner limits assumed): as the sequence (P69905 2-142 partner limits assumed) above
Sequence of allosteric site on hemoglobin (P68871 2-147 limits assumed): as the sequence (P68871 2-147 limits assumed) above

Row | Molecule | P50 [2, 8] | Observed P50 [3, 9] | change of the P50 of treated Red Blood Cells vs. control [3] | appearance of the solution [4] | aggregation of Red Blood Cells [5] | further results
1 | O=C(O)C(COP(=O)(O)O)OP(=O)(O)O (stereo not drawn) [2,3-Diphosphoglycerate] |  |  |  |  |  | half-saturation pressure P(O2) (½) ([1]; pH 7.4, 25 C.): 12.0 mm Hg; half-saturation pressure P(O2) (½) ([1]; pH 7.4, 37 C.): 23.7 mm Hg
2 | Nc1ncnc2c1ncn2[C@@H]1O[C@H](COP(=O)(O)OP(=O)(O)OP(=O)(O)O)[C@@H](O)[C@H]1O [ATP, adenosine triphosphate] | 21.0 |  |  |  |  | 
3 | NC1CCCCC1 [CHA, Cyclohexylamine] |  | 28.5 and 26.8 | No change | visually clear | no aggregation | 
4 | Nc1nc2c(ncn2[C@@H]2O[C@H](COP(=O)(O)OP(=O)(O)OP(=O)(O)O)[C@@H](O)[C@H]2O)c(=O)[nH]1 [GTP] | 23.0 |  |  |  |  | 
5 | O=P(O)(O)O[C@H]1[C@H](OP(=O)(O)O)[C@@H](OP(=O)(O)O)[C@H](OP(=O)(O)O)[C@@H](OP(=O)(O)O)[C@H]1OP(=O)(O)O [IHP, myo-inositol hexakis (dehydrogen Phosphate)] |  |  | No change | visually clear | no aggregation | P50 of modified RBCs [6]: approximately 50 torr; P50 ([2]; goldfish free hemoglobin + 0.25 μmol effector, pH 7.1): 15.0; half-saturation pressure P(O2) (½) ([1]; pH 7.4, 25 C.): 48.4 mm Hg; half-saturation pressure P(O2) (½) ([1]; pH 7.4, 37 C.): 96.4 mm Hg; Observed P50 ([3]; 75 μL whole blood + 200 μL 30 mM effector, 2-5 min, 37° C., Hypotonic, Osm: 185 mOsM): 37.5; affinity for the allosteric site relative to 2,3-DPG [7]: one-thousand times greater affinity
6 | NC1CCCCC1.NC1CCCCC1.NC1CCCCC1.NC1CCCCC1.NC1CCCCC1.O=C(O)[C@@H](COP(=O)(O)O)OP(=O)(O)O [PCHA-DPG, 2,3 Diphospho-D-Glyceric Acid (Pentacyclohexyclammonium salt)] | 10.3 | 50.5 and 47.3 and 36.0 | Increases the P50 | visually clear | no aggregation | P50 of treated-washed RBC pellet vs. control [3]: maintain higher P50 than the control
7 | O=C([O-])[C@@H](COP(=O)([O-])[O-])OP(=O)([O-])[O-].[Na+].[Na+].[Na+].[Na+].[Na+] [PNa-DPG, 2,3 Diphospho-D-Glyceric Acid (Pentasodium salt)] |  | 38.2 | No change | visually clear | no aggregation | Observed P50 ([3]; 75 μL whole blood + 200 μL 30 mM effector, 2-5 min, 37° C., Hypotonic, Osm: 163 mOsM): 37.5; Observed P50 ([3]; 75 μL whole blood + 200 μL 30 mM effector, 2-5 min, 37° C., Isotonic, Osm: 321 mOsM): 39.6
8 | Cyclohexylammonium-Inositol Hexaphosphate [CHA-IHP] |  | 42.0 and 58.2 and 32.8 | Increases the P50 | visually clear | no aggregation | Observed P50 ([3]; 75 μL whole blood + 200 μL 30 mM effector, washed 4×, cell pellet stored for 48 hrs at 4-8° C., measured at 37° C.): 50.5; P50 of treated-washed RBC pellet vs. control [3]: maintain higher P50 than the control; P50 EFF:WB ([3]; same sample as FIG. 12C, evaluated 48 h later (stored at 4-8 C.), 25 mM, 171 mOsM): 50.5 mmHg
